Data taken from ChEMBL document CHEMBL1201862, “PubChem BioAssay data set” (2004).
Activity calls are given as the source filed them.

Key:
[1] = biological target: Nonstructural protein 1 (Influenza A virus, UniProt Q194T2); type: functional, Influenza A virus (A/California/07/2009(H1N1))
[2] = biological target: T1, High affinity choline transporter 1 (Homo sapiens, UniProt Q9GZV3); test: CHT inhibitors, dose response, cell-based, 5-point CRC, membrane potential dye (AID 504840); type: functional
T1 sequence (Q9GZV3 whole entry): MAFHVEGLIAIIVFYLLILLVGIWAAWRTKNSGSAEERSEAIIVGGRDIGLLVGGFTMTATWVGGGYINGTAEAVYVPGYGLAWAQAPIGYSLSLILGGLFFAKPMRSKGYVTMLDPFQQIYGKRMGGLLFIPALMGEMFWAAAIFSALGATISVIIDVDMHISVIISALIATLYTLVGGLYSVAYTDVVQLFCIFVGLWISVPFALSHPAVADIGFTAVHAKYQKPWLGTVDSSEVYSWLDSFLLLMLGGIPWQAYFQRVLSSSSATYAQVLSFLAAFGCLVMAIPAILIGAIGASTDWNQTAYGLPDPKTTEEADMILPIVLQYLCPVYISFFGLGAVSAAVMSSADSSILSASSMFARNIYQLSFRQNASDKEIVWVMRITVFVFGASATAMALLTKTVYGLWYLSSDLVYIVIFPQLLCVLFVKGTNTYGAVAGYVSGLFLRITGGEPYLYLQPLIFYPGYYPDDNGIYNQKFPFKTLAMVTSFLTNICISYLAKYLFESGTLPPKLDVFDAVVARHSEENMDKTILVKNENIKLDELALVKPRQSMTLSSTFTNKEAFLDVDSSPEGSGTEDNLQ

[3] = system: MDCK; test: antiviral activity against H1N1 influenza, dose response, cell-based, strain KY180 (AID 540254); type: functional; conditions: Canis lupus familiaris
[4] = system: Vero; test: Vero E6 cell cytotoxicity, dose response, cytotoxicity control (AID 540298); type: functional; conditions: Chlorocebus sabaeus
[5] = system: MDCK; test: MDCK cell cytotoxicity, dose response, cytotoxicity control (AID 540296); type: functional; conditions: Canis lupus familiaris
[6] = system: MDCK; test: antiviral activity against H1N1 influenza, dose response, cell-based, strain KY136 (AID 540257); type: functional; conditions: Canis lupus familiaris

Sequence of Nonstructural protein 1 (Q194T2 whole entry): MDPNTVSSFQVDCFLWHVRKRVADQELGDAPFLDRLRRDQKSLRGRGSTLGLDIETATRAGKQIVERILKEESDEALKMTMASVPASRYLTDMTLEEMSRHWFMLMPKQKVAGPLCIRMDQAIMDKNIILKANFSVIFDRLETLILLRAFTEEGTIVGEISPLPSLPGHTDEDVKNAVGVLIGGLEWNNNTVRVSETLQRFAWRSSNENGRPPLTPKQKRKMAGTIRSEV

O=C(Nc1cccc(CNCCc2c[nH]c3ccccc23)c1)c1ccccc1Cl
active: IC50 [1] > 100 µM | IC50 [2] 17.4 µM | IC50 [3] > 100 µM | CC50 [4] 22.4 µM | CC50 [5] 10.9 µM | IC50 [6] 2.93 µM
